These results are taken from patent US10766914B2, “DNA alkylating agents” (OBI PHARMA, INC., priority 2015, dated 2020).

A short description of data set [1]: Pharmacokinetics in CD-1 mice following a single intraperitoneal dose (parent and TH2660). As to conditions: mouse, in vivo, ip, parent compound. Here is the method: The pharmacokinetics of TH2873, TH2883, TH2888, TH2890, TH2901 and TH2926 were determined in CD-1 mice following a single intraperitoneal dose.
The pharmacokinetics of TH2660, the active metabolite, following a single intraperitoneal dose of TH2873, TH2883, TH2888, TH2890, TH2901 and TH2926 are shown below.

The subject of data set [2] is A375 melanoma human tumor xenograft. The experiment in a line: Example 4-C antitumor efficacy, ectopic A375 melanoma xenograft model. As to conditions: qd × 5 × 2, ip. It counts as in vivo, female nude mice (nu/nu). An excerpt: (§1) Specific pathogen-free homozygous female nude mice (nu/nu, Charles River Laboratories) were used. Mice were given food and water ad libitum and housed in microisolator cages. Four to six week old animals were identified by microchips (Locus Technology, Manchester, Md., USA) at the time of the experiments. All animal studies were approved by the Institutional Animal Care and Use Committee at Threshold Pharmaceuticals, Inc.
(§2) All cell lines were from the American Type Culture Collection (ATCC, Rockville, Md., USA).
(§3) Cells were mixed with Matrigel (50% with exception for 30% in the H460) and 0.2 ml per mouse were subcutaneously implanted to the flank area of the animals. When tumor size reached 100-150 250 mm3, mice were randomized into experimental or vehicle groups with 10 mice/group and treatment was started (Day 1). The tested compounds were formulated in 5% DMSO in D5W. The regimens employed in the examples include IP, QD×5/wk (5 days on, 2 days off) as one cycle, for a total of 2 cycles; IP, once; IP, weekly for total 3 weeks; and IV, weekly for 3 weeks. Tumor growth and body weight were measured twice a week. Tumor volume was calculated as (length×width2)/2. Drug efficacy was assessed as Tumor Growth Inhibition (TGI) and Tumor Growth Delay (TGD). TGI was defined as (1−ΔT/ΔC)×100, where ΔT/ΔC presented the ratio of the change in mean (or median, if variation within the group was relatively large) tumor volume of the treated group and of the control group. TGD was calculated as the extra days for the treated tumor to reach 500 mm3 or 1000 mm3 as compared to the control group. Animals were culled when individual tumor size reached over 2000 mm3 or mean tumor volume exceeded 1000 mm3 in the group. Data are expressed as the mean±SEM. One-way analysis of variance with Dunnett post comparison test (GraphPad Prism 4) or two-tailed student's t-test were used for analysis. A P level <0.05 was considered statistically significant.
his study employed an A375 melanoma human tumor xenograft model and various compounds provided herein were compared to thiotepa and the approved anti melanoma drug, nab-Paclitaxel.

A further data set concerns H460 cells. The experiment in a line: Proliferation assay in H460 cells (2 hr exposure, AlamarBlue). It counts as cell-based, human. As to conditions: Homo sapiens, NCI-H460, 2 hrs exposure, wash, 70 hrs growth, read-out: IC 50 in proliferation assay in H460 cells. Put shortly:
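H460 cells seeded at 4×10^3/well, grown 24 h, then exposed to compound for 2 h at 37 °C. Drug was washed off and cells were regrown 70 h in fresh medium. Viable cells were read by AlamarBlue, and IC50 was taken as the concentration giving 50% growth inhibition.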

The nature of data set [3]: Example 4-C body weight change, A375 xenograft study. It counts as in vivo, female nude mice (nu/nu). As to conditions: qd × 5 × 2, ip. Here is the method:
as §3
his study employed an A375 melanoma human tumor xenograft model and various compounds provided herein were compared to thiotepa and the approved anti melanoma drug, nab-Paclitaxel. The antitumor effects and the safety of administration are graphically illustrated below.

Data set [4] is described as follows: Pharmacokinetics of TH2953 in NU/NU mice with A549 and H460 xenografts. It counts as in vivo, Mouse/Nu-Foxn 1nu NU/NU mice. As to conditions: Nu-Foxn1nu NU/NU, mouse; for Kp: intraperitoneal, A549 tumor xenograft, 10 and 40 mg/kg ip; for AUC / Cmax / Tmax / half-life: plasma, ip. On the procedure:
The pharmacokinetics of TH2660, the active metabolite, following a single iintraperitoneal dose of TH2953 are shown below.
A549 and H460, following a single intraperitoneal dose of 10 and 40 mg/kg for A549 and 10 mg/kg for H460. TH2953 concentrations in the brain, liver and tumor were 55.0-73.8%, 297-541% and 2.08-8.34% of the concentrations in plasma in the A549 tumor xenograft. […] In the A549 xenograft, the preferential activation of TH2953 was more pronounced as the concentrations of TH2660 in the tumor were ˜5-7-fold greater than for TH2953, while they were only ˜13-15% in the liver.

The subject of a further data set is A549 NSCLC xenograft. Briefly: Example 4-D antitumor efficacy, ectopic A549 NSCLC xenograft model. The data set is classed as in vivo, female nude mice (nu/nu). As to conditions: 40 mg/kg IP QD × 5/wk × 2 wks.
Source text: as §1, §2, §3
(§4) The compounds were tested in another A549 model. The compounds were dosed as follows. Daily IP dosing: 5 doses then 2 days off then 5 more doses starting at 100 mm^3 tumors on day 1 (10 animals per group average tumor volume). The antitumor effects and the safety of administration are graphically illustrated below.

A further data set relates to H460 NSCLC xenograft. Briefly: Example 4-F antitumor efficacy, ectopic H460 NSCLC xenograft model. The data set is classed as in vivo, female nude mice (nu/nu). As to conditions: ip.
Source text: as §1, §2, §3
(§5) The compounds TH-2953 and TH-3040 were tested in a H460 model. The compounds were dosed as follows. A dose-dependent TH-2953 was given IP once, from 6.25 to 100 mg/kg, comparing with daily IP: 5 doses then 2 days off then 5 more doses starting at 100 mm^3 tumors on day 1 (10 animals per group average tumor volume). TH-3040 was administered IP once. The antitumor effects and the safety of administration are graphically illustrated below.

A short description of data set [5]: Example 4-D body weight change and lethal toxicity, A549 xenograft study. It counts as in vivo, female nude mice (nu/nu). As to conditions: 40 mg/kg IP QD × 5/wk × 2 wks. On the procedure:
as §3, §4

The nature of data set [6]: Example 4-F body weight change, H460 xenograft study. The following applies: ip. The data set is classed as in vivo, female nude mice (nu/nu). On the procedure:
as §3, §5

For data set [7], the system named is A 549 non-small cell lung xenograft. Briefly: Example 4-B antitumor efficacy, ectopic A549 NSCLC xenograft model. It counts as in vivo, female nude mice (nu/nu).
Source text: as §1, §2, §3
The dosing was as follows. Daily IP dosing: 5 doses then 2 days off then 5 more doses starting at 110 mm^3 tumors on day 1 (10 animals per group average tumor volume).
Doses were selected by first doing a toxicity test in CD1 mice as described above. The compounds were tested against Thio-tepa.

A short description of data set [8]: Example 4-B body weight change, A549 xenograft study. It counts as in vivo, female nude mice (nu/nu). Here is the method:
as §3
Antitumor effects of compounds provided herein were determined on A 549 non-small cell lung xenograft model in comparison with a chemotherapy agent, thiotepa. The dosing was as follows. Daily IP dosing: 5 doses then 2 days off then 5 more doses starting at 110 mm^3 tumors on day 1 (10 animals per group average tumor volume). The antitumor effects and the safety of administration are graphically illustrated below.

The mark [9] stands for this setting: 10 mg/kg, TH2953 10 mg/kg single ip, A549 xenograft.
Setting [10] is: 10 mg/kg, TH2953 10 mg/kg single ip, H460 xenograft.
The mark [11] stands for this setting: 40 mg/kg, TH2953 40 mg/kg single ip, A549 xenograft.
[12] abbreviates: 1.25 mg/kg ip QD × 5/wk × 2 wks.

One may read the AUC as the area under the concentration-time curve, a measure of exposure. As usually defined, the Cmax is the peak of the concentration-time curve. By Tmax is commonly meant the time at which the peak concentration occurs. The term half-life denotes the time in which the quantity being followed falls by half.

SMILES strings stand for the structures. Read-outs that look alike come from different tables or passages of the source.

Regarding `Cc1ccc(Oc2cc(COP(=O)(N3CC3)N3CC3)ccc2[N+](=O)[O-])cn1` [Compound 2890], in [1], the AUC is 613 ng·h/mL, the Cmax came to 2730 ng/mL, the Tmax was 5 min and the half-life turned out to be 5.49 min. Moreover, in data set [2] (10 mpk), the “TGD 500” value was determined as 10 days and the “TGD 1000” value came to 10 days. Besides, the inhibition in vivo at 10 mg/kg in data set [2] (Mus musculus, A-375, 10 mpk, read-out: TGI) was 58.4%. Besides, the IC50 in the data set with H460 cells was 6 nM. For the same compound, in [3] (10 mpk), the “Max. BW loss %” value is given as 6.3%.
Regarding `CC(OP(=O)(N1CC1)N1CC1)c1ccc([N+](=O)[O-])c(Oc2ccc(-c3ccccc3)cc2)c1` (stereo not drawn) [Compound 2953], the Kp in data set [4] (brain (relative to plasma), read-out: concentration in the brain as % of the concentrations in plasma) lay in the range of 0.55 to 0.738; in [4] (liver (relative to plasma), read-out: concentration in the liver as % of the concentrations in plasma), 2.97 to 5.41; in data set [4] (tumor (relative to plasma), read-out: concentration in the tumor as % of the concentrations in plasma), 0.0208 to 0.0834. The values for the AUC in data set [4] (setting [9]), in [4] (setting [10]) and in data set [4] (setting [11]) were 4430 ng·h/mL, 7400 ng·h/mL and 39000 ng·h/mL, respectively. The values for the Cmax in data set [4] (setting [9]), in [4] (setting [10]) and in data set [4] (setting [11]) were 149 ng/mL, 2330 ng/mL and 14800 ng/mL, respectively. For the same compound, the Tmax in data set [4] (setting [9]) is 30 min; in [4] (setting [10]), 15 min; in data set [4] (setting [11]) it was 30 min. In addition, the half-life in [4] (setting [9]) is 100 min; in data set [4] (setting [10]), 142 min; in data set [4] (setting [11]), 91.3 min. In addition, the “TGD 500” value with A549 NSCLC xenograft is 64 days; in the data set on H460 NSCLC xenograft (6.25 mpk, once), 16 days; in the data set with H460 NSCLC xenograft (12.5 mpk, once) it was 18 days; with H460 NSCLC xenograft (25 mpk, once), 18 days; with H460 NSCLC xenograft (40 mpk, QD × 5/wk × 2ks) it was 54 days; in the data set on H460 NSCLC xenograft (50 mpk, once), 19 days. Moreover, the “TGD 500” value with H460 NSCLC xenograft (100 mpk, once) was 24 days. Besides, the TGI in the data set on A549 NSCLC xenograft came to 93.8%; in the data set with H460 NSCLC xenograft (6.25 mpk, once), 72.2%; with H460 NSCLC xenograft (12.5 mpk, once), 78.2%; with H460 NSCLC xenograft (25 mpk, once), 86.1%; in the data set with H460 NSCLC xenograft (40 mpk, QD × 5/wk × 2ks) it was 105.8%; in the data set on H460 NSCLC xenograft (50 mpk, once) it was 90.4%. The TGI with H460 NSCLC xenograft (100 mpk, once) is reported as 97.7%. The IC50 in the data set on H460 cells is 5 nM. Moreover, the “TGD 1000” value in the data set with H460 NSCLC xenograft (6.25 mpk, once) came to 17 days; in the data set on H460 NSCLC xenograft (12.5 mpk, once), 21 days; in the data set with H460 NSCLC xenograft (25 mpk, once), 20 days; in the data set on H460 NSCLC xenograft (40 mpk, QD × 5/wk × 2ks), 65 days; in the data set on H460 NSCLC xenograft (50 mpk, once) it was 19 days; in the data set with H460 NSCLC xenograft (100 mpk, once), 27 days. The “Max. BW loss %” value was 1.6% in data set [5]; 0.0% in data set [6] (6.25 mpk, once); 0.0% in data set [6] (12.5 mpk, once); 0.2% in [6] (25 mpk, once); 0.0% in [6] (40 mpk, QD × 5/wk × 2ks); 0.0% in data set [6] (50 mpk, once). Besides, the “Max. BW loss %” value in [6] (100 mpk, once) is 0.0%. Also, the “Lethal Tox” value in [5] (10 animals per group) turned out to be 0.
Take `S=P(N1CC1)(N1CC1)N1CC1` [Thio-TEPA, thiotepa, reference compound]: the entries for the “TGD 500” value in data set [7] (setting [12]), in [7] (2.5 mg/kg ip QD × 5/wk × 2 wks) and in [2] (2.5 mpk) were 17 days, 26 days and 3 days, respectively. Moreover, the TGI is 56.1% in [7] (setting [12]) and 68.3% in data set [7] (2.5 mg/kg ip QD × 5/wk × 2 wks). Moreover, in [2] (2.5 mpk), the “TGD 1000” value is given as 2 days. In addition, the inhibition in vivo at 2.5 mg/kg in [2] (Mus musculus, A-375, 2.5 mpk, read-out: TGI) was found to be 16.6%. For the same compound, the results for the “Max. BW loss %” value in [8] (setting [12]), in [8] (2.5 mg/kg ip QD × 5/wk × 2 wks) and in data set [3] (2.5 mpk) were 0.0%, 0.4% and 0%, respectively.
